The test system of one experiment is 8226/DOX-40. The experiment in a line: In vitro tumor cell viability assay using MTT dye. As to conditions: for IC50: Homo sapiens. The class given is cell-based, Human. As to the method: (§1) Compounds of the present invention were tested for their in vitro activity in tumor cells sensitive and resistant to standard anti-cancer agents. The tumor cell lines used in this protocol are 8226 human Myeloma^1; 8226/Dox-40^2, L-1210/Murine Leukemia, multidrug resistant L-210/^3, 2780 Human Ovarian Cancer and 2780/AD^4. Each of these resistant cell lines is known as a multidrug resistant or "MDR" cell line. These cell lines produce a 170,00 molecular weight membrane protein termed the P-glycoprotein which acts as an active drug efflux pump. Thus, once a cell produces the P-glycoprotein, it has the capability of pumping out of the cell a large variety of unrelated natural products. […] The protocol for measuring the effectiveness of compounds of the present invention is as follows: 2) In Vitro Tumor Cell Viability Assays Using MTT-Dye: Tumors are processed into a single cell suspension as described above. The cells are plated at a concentration of 3-5 X 10^4/1 mL well into plastic 96-well plates. […] Afterwards the medium containing the drug is removed, the cells are "washed" by centrifugation in fresh medium or phosphate-buffered saline (pH 7.4). A tetrazolium dye is then added (3,4,5-dimethylthiazol-2-yl)-2,5-diphenyl tetrazolium bromide (MTT). This dye forms a colored formazan product upon activation by mitochondrial reductases in viable cells. Typically, the formazan product is solubilized in acid-propanol or DMSO. The intensity of the color is proportional to viable cell numbers and this is quantitated by spectrophotometric absorbance ([…]) on a micro ELISA plate reader. Test results are calibrated in % control absorbance from untreated tumor cells (Mossman T: J Immunol Meth 65:55-63, 1983). Using the above procedure, Compound 1 was tested for its cytotoxic activity with respect to various tumor cell lines.

The subject of a further experiment is 2780/AD. The experiment in a line: In vitro tumor cell viability assay using MTT dye. The class given is cell-based, Human. As to the method: as §1
Another experiment concerns L-1210/Murine Leukemia. The experiment in a line: In vitro tumor cell viability assay using MTT dye. Format: cell-based. To be noted: Mus musculus. As to the method: as §1
A general note: Formazan colour is commonly taken as a measure of viable cells.

The test system of a further experiment is 8226 Human Myeloma. The experiment in a line: In vitro tumor cell viability assay using MTT dye. Format: cell-based. As to the method:
as §1

The test system of experiment [1] is 2780 Human Ovarian Cancer. Briefly: In vitro tumor cell viability assay using MTT dye. Format: cell-based. To be noted: MTT dye reduction. As to the method:
as §1

The next experiment has as its system SW80p105. The experiment in a line: Activity against human colon tumor cells (MTT assay, 3 day drug exposure). The class given is cell-based. As to conditions: cells plated 24 hr. prior to drug addition, read-out: Concentration for 50% inhibition of colony formation for human colon tumors. As to the method:
(§2) For example, the compounds of the present invention were evaluated for cytotoxic activities in cloned human colon carcinomas. The clonogenic assays were conducted in accordance with the procedure described hereinbelow: 1) Colony Forming Assays in Soft Agar: Fresh human or murine tumors are disaggregated into single cell suspensions using mechanical, hypoosmotic and/or enzymatic (trypsin) methods. The single cells (about 5 X 10^4-10^5) are plated in 35 mm plastic petri dishes onto a 1 ml "feeder layer" of 0.3% agar dissolved in growth medium containing 5-10% vol/vol of heat-inactivated fetal bovine serum, molten 0.3% agar and the antibiotics penicillin (100 u/mL) and streptomycin (100 ug/mL). Drug exposures can be performed for one hour or continuously (drugs added to final plating medium). Tumor cell colonies > 60 uM in size are counted by automated image analysis after 10-20 days of incubation in a humidified, 5-10% CO2-gassed environment maintained at 37°C. Inhibition of colony formation is calculated based on comparisons to control (untreated) plates wherein the growth of hundreds of colonies/plate is typical. (Salmon SE, et al., N Engl J Med 298(24):1321-1327, 1978).
as §1

Another experiment relates to HT29p30. The experiment is described as above. As to conditions: cells plated 24 hr. prior to drug addition, read-out: Concentration for 50% inhibition of colony formation for human colon tumors. Format: cell-based. As to the method:
as §2, §1

The subject of a further experiment is Colon-38 Adenocarcinoma. Briefly: Tumor growth delay in mice, Colon-38 model. The class given is in vivo. To be noted: 20mg implants in C57B/mice; 15 mg/kg; d3,6; intraperitoneally. The text has this:
(§3) Thus, in the lower level resistant cell lines, such as the ten-fold mitomycin C resistant L1210 and the tenfold adriamycin resistant 2780 ovarian cancer, Compound 1 maintained its complete activity as shown in Table II. The anti-tumor activity of compounds of the present invention in in vivo mouse murine models were studied. 3) Survival Studies In Tumor-Bearing Mice: 3.1 P-388 Leukemia Modles: One million P-388 leukemia cells originally obtained from American Type Culture Collection (Rockville, MD) are implanted into the peritoneum of adult DBA-2J male mice (Jackson Laboratories, Bar Harbor, ME). Twenty four hours later, drugs diluted in physiological saline are injected intraperitoneally at a volume of 0.1 mL/10 g body weight. The mice (10/group) are then followed for survival daily and compared to untreated tumor bearing mice. […] The perpendicular widths of the tumors are measured by caliper thrice weekly and converted to an estimated tumor mass according to the formula: ((1 X W)^2)/(2)= grams of tumor. [formula] wherein • W = width of tumor • l = length of tumor Tumor growth delay is calculated as the difference in days for tumors in treated mice to reach an estimated mass 750 mg or 1.5 g compared to that in untreated controls: Days to reach 750 mg (Treated - Control) = Days of Tumor Growth Delay [formula] […]

Experiment [2] relates to P-388/ADR (adriamycin-Resis-tant). Briefly: Survival study in tumor-bearing mice, P-388/adriamycin resistant model. Format: in vivo. To be noted: 10^6 cells in DBA mice; 15 mg/kg; d1,5,9; intraperitoneally.
Text: as §3

Converted amounts (≈) assume the structure as drawn. Where two headings read alike, the source gives them in different places.

Regarding `CN(C)CCN1C(=O)c2cccc3cc4ccccc4c(c23)C1=O` [Compound 1, 2-[2'-(dimethylamino)ethyl]-1,2-dihydro-3H-dibenz(deh)isoquinoline-1,3-dione], the “Cross Resistance” value is on record as 3-fold in the experiment with 8226/DOX-40 (8226/DOX-40 versus 8226 Human Myeloma) and “None” with 2780/AD (2780/AD versus 2780 Human Ovarian Cancer). The IC50 in the experiment with 8226/DOX-40 (96 h, 8226/DOX-40, 40-fold resistant to Doxorubicin, 4-day drug exposure, MTT dye reduction, read-out: Activity (IC50)) is 0.036 µg/mL (≈ 0.113 µM); with 8226/DOX-40 (8226 Myeloma Cells Resistant, continuous exposure, MTT dye assay, read-out: IC50 VALUES), 0.03 µg/mL (≈ 0.0942 µM); in the experiment with 2780/AD (Homo sapiens, 96 h, 2780/AD MDR, P-glycoprotein (+), 10-fold resistance to Doxorubicin, 4-day drug exposure, MTT dye reduction), 2.7 µg/mL (≈ 8.48 µM); with L-1210/Murine Leukemia (144 h, Sensitive L1210, six day MTT assay, continuous drug exposure, read-out: Concentration for 50% inhibition of tumor cells) it was 0.0025 µg/mL (≈ 0.00785 µM); in the experiment with L-1210/Murine Leukemia (L1210, 96 h, L-1210/Murine Leukemia, 4-day drug exposure, MTT dye reduction, read-out: Activity (IC50)), 0.003 µg/mL (≈ 0.00942 µM); with L-1210/Murine Leukemia (L1210 Leukemia Cells Sensitive, continuous exposure, MTT dye assay, read-out: IC50 VALUES), 0.0028 µg/mL (≈ 0.00879 µM). The IC50 in the experiment with 8226 Human Myeloma (96 h, 8226 Human Myeloma, 4-day drug exposure, MTT dye reduction, read-out: Activity (IC50)) stood at 0.011 µg/mL (≈ 0.0346 µM); with 8226 Human Myeloma (Homo sapiens, 8226 Myeloma Cells Sensitive, continuous exposure, MTT dye assay, read-out: IC50 VALUES), 0.01 µg/mL (≈ 0.0314 µM); in experiment [1], 4 µg/mL (≈ 12.6 µM); with SW80p105 it was 150 nM; with HT29p30 it was 340 nM. In addition, the “Experimental Activity, Days of Tumor Growth Delay” value in the experiment on Colon-38 Adenocarcinoma was 6 days TT. Moreover, the “Experimental Activity, ILS (Percentage Increased Lifespan)” value in experiment [2] is given as 33 ILS.

The values are drawn from patent EP0536208B1, “1,2-DIHYDRO-3H-DIBENZISOQUINOLINE-1,3-DIONE ANTICANCER AGENTS” (RESEARCH CORPORATION TECHNOLOGIES, INC., priority 1990, dated 1992).
